Measured values from patent publication US9427428B2, “Benzimidazole-imidazole derivatives” (Janssen Sciences Ireland UC, priority 2009, dated 2016).

Columns and labels:
[1] = system: HCV type 1b replicon (Huh-7 luc/neo cells); test: HCV replicon assay, stable transfection (Huh-Luc, luciferase); assay type: cell-based; details: Hepatitis C virus, Huh-7, 72 h, three days incubation, average of all tests
Excerpt: The compounds of formula (I) were examined for inhibitory activity in the HCV replicon. This cellular assay is based on a bicistronic expression construct, as described by Lohmann et al. (Science (1999) 285: 110-113; Journal of Virology (2003) 77: 3007-3019) with modifications described by Krieger et al. (Journal of Virology (2001) 75: 4614-4624), and Lohmann et al. (Journal of Virology (2003) 77: 3007-3019) for genotype 1b and by Yi et al. (Journal of Virology (2004) 78: 7904-7915) for genotype 1a, in a multi-target screening strategy.
The method was as follows. The assay utilized the stably transfected cell line Huh-7 luc/neo (hereafter referred to as Huh-Luc). This cell line harbors an RNA encoding a bicistronic expression construct comprising the wild type NS3-NS5B regions of HCV type 1b translated from an Internal Ribosome Entry Site (IRES) from encephalomyocarditis virus (EMCV), preceded by a reporter portion (FfL-luciferase), and a selectable marker portion (neoR, neomycine phosphotransferase). The construct is flanked by 5′ and 3′ NTRs (non-translated regions) from HCV type 1b. Continued culture of the replicon cells in the presence of G418 (neoR) is dependent on the replication of the HCV RNA. The stably transfected replicon cells that replicate HCV RNA autonomously and to high levels, encoding inter alia luciferase, were used for screening the antiviral compounds.
The replicon cells were plated in 384 well plates in the presence of the test and control compounds which were added in various concentrations. Following an incubation of three days, HCV replication was measured by assaying luciferase activity (using standard luciferase assay substrates and reagents and a Perkin Elmer ViewLux™ ultraHTS microplate imager). Replicon cells in the control cultures have high luciferase expression in the absence of any inhibitor. The inhibitory activity of the compound was monitored on the Huh-Luc cells, enabling a dose-response curve for each test compound. EC50 values were then calculated, which represent the amount of compound required to decrease the level of detected luciferase activity by 50%, or more specifically, to reduce the ability of the genetically linked HCV replicon RNA to replicate.
Where a compound of formula (I) was tested more than once in the replicon assay, the average of all test results is given in this Table 2.

[2] = system: HCV genotype 1b Con1 replicon (Huh-7 lunet cells); test: HCV replicon assay, transient transfection, genotype 1b; assay type: cell-based; details: Hepatitis C virus, 48 h, genotype 1b Con1, two days incubation, luciferase
Excerpt: (§1) In a transient set-up, a Huh-7 lunet hepatoma cell line was transiently transfected with an autonomously replicating RNA encoding a bi-cistronic expression construct. This construct comprises a firefly luciferase reporter gene preceding the NS3-NS5B subgenomic region of HCV (genotype 1a H77 or 1b Con1). Translation of the HCV subgenomic region is mediated by an internal ribosome entry site of encephalomyocarditis virus. The construct is furthermore flanked by 5′ and 3′ untranslated regions of HCV (genotype 1a H77 or 1b Con 1, respectively), which allow for replication of the RNA.
(§2) Cells were plated in 384 well plates in the presence of test and control compounds, which were added in various concentrations. Following an incubation of two days, replication of the HCV subgenomic replicon RNA was measured by assaying luciferase activity (using standard luciferase assay substrates and reagents and a Perkin Elmer ViewLux™ ultraHTS microplate imager). HCV subgenomic replicon containing cells in the control cultures have high luciferase expression in the absence of any inhibitor. The inhibitory activity of the compound was monitored, enabling a dose-response curve for each test compound. EC50 values were then calculated, which represent the amount of compound required to decrease the level of detected luciferase activity by 50%, or more specifically, to reduce the ability of the genetically linked HCV subgenomic RNA to replicate.
(§3) Where a compound of formula (I) was tested more than once in the transient replicon assay, the average of all test results is given in Table 3.

[3] = Counterscreen MT4-LTR-Luc; assay type: cell-based; details: human
Excerpt: (§4) Counterscreen cell lines included a Huh-7 hepatoma cell line containing a human cytomegalovirus major immediate-early promoter-Luc construct (Huh7-CMV-Luc) and an MT4 T-cell line containing a long terminal repeat-Luc reporter (MT4-LTR-Luc).

[4] = Counterscreen Huh7-CMV-Luc; assay type: cell-based; details: human
Excerpt: as §4

[5] = system: HCV genotype 1b replicon NS5A Y93H; test: Transient HCV 1b replicon, NS5A mutant Y93H; assay type: cell-based; details: Hepatitis C virus, read-out: EC50 Y93H
Excerpt: as §1
(§5) In addition to the wild-type constructs, site-directed mutations were introduced into the transient HCV genotype 1b replicon in the gene encoding for the non-structural protein 5A (NS5A). More precisely, amino acid residues 28, 30, 31 and 93 in NS5A were independently altered.
as §2

[6] = system: HCV genotype 1a H77 replicon (Huh-7 lunet cells); test: HCV replicon assay, transient transfection, genotype 1a; assay type: cell-based; details: Hepatitis C virus, 48 h, genotype 1a H77, two days incubation, luciferase
Excerpt: as §1, §2, §3

[7] = system: HCV genotype 1b replicon NS5A L28T; test: Transient HCV 1b replicon, NS5A mutant L28T; assay type: cell-based; details: Hepatitis C virus, read-out: EC50 L28T
Excerpt: as §1, §5, §2

[8] = system: HCV genotype 1b replicon NS5A R30H; test: Transient HCV 1b replicon, NS5A mutant R30H; assay type: cell-based; details: Hepatitis C virus, read-out: EC50 R30H
Excerpt: as §1, §5, §2

[9] = system: HCV genotype 1b replicon NS5A L31F; test: Transient HCV 1b replicon, NS5A mutant L31F; assay type: cell-based; details: Hepatitis C virus, read-out: EC50 L31F
Excerpt: as §1, §5, §2

[10] = system: HCV genotype 1b replicon NS5A L31M; test: Transient HCV 1b replicon, NS5A mutant L31M; assay type: cell-based; details: Hepatitis C virus, read-out: EC50 L31M
Excerpt: as §1, §5, §2

[11] = system: HCV genotype 1b replicon NS5A L31V; test: Transient HCV 1b replicon, NS5A mutant L31V; assay type: cell-based; details: Hepatitis C virus, read-out: EC50 L31V
Excerpt: as §1, §5, §2

[12] = system: HCV genotype 1b replicon NS5A Y93C; test: Transient HCV 1b replicon, NS5A mutant Y93C; assay type: cell-based; details: Hepatitis C virus, read-out: EC50 Y93C
Excerpt: as §1, §5, §2

[13] = Pharmacokinetic analysis after single oral administration, liver concentration; assay type: in vivo; details: male Sprague-Dawley rats, 10 mg/kg oral, solution in PEG400
Method: Compounds were dosed orally as a solution in PEG400 to male Sprague-Dawley rats at a dose level of 10 mg/kg. At serial time points, after dosing, the animals were sacrificed and liver samples collected. All samples were analyzed using a qualified research LC-MS/MS method to determine the concentration of the tested compounds in liver. Non-compartmental analysis using the lin/log trapezoidal rule was performed using WinNonlin™ Professional (Version 5.2.1).

| Compound | EC50 [1] [nM] | EC50 [2] [nM] | CC50 [3] [nM] | CC50 [4] [nM] | EC50 [5] [nM] | EC50 [6] [nM] | EC50 [7] [nM] | EC50 [8] [nM] | EC50 [9] [nM] | EC50 [10] [nM] | EC50 [11] [nM] | EC50 [12] [nM] | Liver AUC [13] [ng·h/g] |
| --- | --- | --- | --- | --- | --- | --- | --- | --- | --- | --- | --- | --- | --- |
| COC(=O)N[C@H](C(=O)N1CCC[C@H]1c1ncc(-c2ccc3cc(-c4ccc5nc([C@@H]6CCCN6C(=O)[C@@H](NC(=O)OC)C6CC6)[nH]c5c4)ccc3c2)[nH]1)C1CC1 [Compound 5] | 0.039 | 0.058 | > 984 | > 984 | 10.8 |  |  |  |  |  |  |  |  |
| CC[C@H](C)[C@H](NC(=O)OC)C(=O)N1CCC[C@@H]1c1ncc(-c2ccc3cc(-c4ccc5[nH]c([C@@H]6CCCN6C(=O)[C@@H](NC(=O)OC)[C@@H](C)OC)nc5c4)ccc3c2)[nH]1 [Compound 21] | 2.2 | 2.9 | 9140 | 8160 | 275 | 482 |  |  |  |  |  |  |  |
| CC[C@H](C)[C@H](NC(=O)OC)C(=O)N1CCC[C@H]1c1nc2cc(-c3ccc4cc(-c5cnc([C@@H]6CCCN6C(=O)[C@@H](NC(=O)OC)[C@@H](C)OC)[nH]5)ccc4c3)ccc2[nH]1 [Compound 18] | 0.003 | 0.004 | 9680 | 8680 | 0.08 | 0.018 | 0.041 | 0.039 | 0.005 | 0.054 | 0.052 | 0.003 | 14091 |
| CC[C@H](C)[C@H](NC(=O)OC)C(=O)N1CCC[C@H]1c1ncc(-c2ccc3cc(-c4ccc5[nH]c([C@@H]6CCCN6C(=O)[C@@H](NC(=O)OC)[C@@H](C)OC)nc5c4)ccc3c2)[nH]1 [Compound 17] | 0.005 | 0.005 | 9300 | 11100 | 0.034 | 0.049 | 0.037 | 0.036 | 0.005 | 0.025 | 0.037 | 0.003 | 4213 |
| COC(=O)N[C@H](C(=O)N1CCC[C@H]1c1ncc(-c2ccc(-c3ccc4nc([C@@H]5CCCN5C(=O)[C@@H](NC(=O)OC)[C@@H](C)OC)[nH]c4c3)cc2)[nH]1)[C@@H](C)OC [Compound 2] | 0.54 | 0.909 | > 984 | > 984 | 2.88 |  | 9.05 | 2.69 | 1.81 |  | 1.38 | 0.655 |  |
| COC(=O)N[C@H](C(=O)N1CCC[C@H]1c1ncc(-c2ccc3cc(-c4ccc5nc([C@@H]6CCCN6C(=O)[C@@H](NC(=O)OC)C6CCCC6)[nH]c5c4)ccc3c2)[nH]1)C1CCCC1 [Compound 15] | 0.003 | 0.003 | > 984 | > 984 | 1.19 | 0.277 |  |  |  |  |  |  |  |
| COC(=O)N[C@H](C(=O)N1CCC[C@H]1c1ncc(-c2ccc(-c3ccc4nc([C@@H]5CCCN5C(=O)[C@@H](NC(=O)OC)C(C)C)[nH]c4c3)cc2)[nH]1)C(C)C [Compound 1] | 0.058 | 0.058 | > 984 |  | 1.33 |  | 4.12 | 0.6 | 0.775 |  | 1.06 | 0.076 |  |
| COC(=O)NC(C(=O)N1CCC[C@H]1c1ncc(-c2ccc3cc(-c4ccc5nc([C@@H]6CCCN6C(=O)C(NC(=O)OC)c6ccccc6)[nH]c5c4)ccc3c2)[nH]1)c1ccccc1 (mixture of isomers) [Compound 14] | 0.004 | 0.004 | > 984 | > 984 | 0.093 | 0.836 |  |  |  |  |  |  |  |
| COCC[C@H](NC(=O)OC)C(=O)N1CCC[C@H]1c1ncc(-c2ccc3cc(-c4ccc5nc([C@@H]6CCCN6C(=O)[C@H](CCOC)NC(=O)OC)[nH]c5c4)ccc3c2)[nH]1 [Compound 10] | 0.029 | 0.057 | > 984 | > 984 | 1.03 |  |  |  |  |  |  |  |  |
| COC(=O)N[C@@H](CC(C)C)C(=O)N1CCC[C@H]1c1ncc(-c2ccc3cc(-c4ccc5nc([C@@H]6CCCN6C(=O)[C@H](CC(C)C)NC(=O)OC)[nH]c5c4)ccc3c2)[nH]1 [Compound 7] | 0.005 | 0.003 | > 984 | > 984 | 3.41 | 0.989 |  |  |  |  |  |  |  |
| COC(=O)N[C@H](C(=O)N1CCC[C@H]1c1ncc(-c2ccc3cc(-c4ccc5nc([C@@H]6CCCN6C(=O)[C@@H](NC(=O)OC)[C@@H](C)O)[nH]c5c4)ccc3c2)[nH]1)[C@@H](C)O [Compound 6] | 0.132 | 0.142 | > 984 | > 984 | 1.01 | 0.181 |  |  |  |  |  |  |  |
| CC[C@H](C)[C@H](NC(=O)OC)C(=O)N1CCC[C@H]1c1nc2cc(-c3ccc4cc(-c5cnc([C@H]6CCCN6C(=O)[C@@H](NC(=O)OC)[C@@H](C)OC)[nH]5)ccc4c3)ccc2[nH]1 [Compound 20] | 2.3 | 4.1 | 9410 | 8160 | 336 | 324 |  |  |  |  |  |  |  |
| CC[C@@H](C)[C@H](NC(=O)OC)C(=O)N1CCC[C@H]1c1ncc(-c2ccc3cc(-c4ccc5nc([C@@H]6CCCN6C(=O)[C@@H](NC(=O)OC)[C@H](C)CC)[nH]c5c4)ccc3c2)[nH]1 [Compound 19] | 0.003 | 0.002 | > 984 | > 984 | 5.19 | 0.471 |  |  |  |  |  |  |  |
| COC(=O)NC(C(=O)N1CCC[C@H]1c1ncc(-c2ccc3cc(-c4ccc5nc([C@@H]6CCCN6C(=O)C(NC(=O)OC)C6CCOCC6)[nH]c5c4)ccc3c2)[nH]1)C1CCOCC1 (mixture of isomers) [Compound 12] | 0.08 | 0.11 | > 984 | > 984 | 0.275 | 0.268 |  |  |  |  |  |  |  |
